According to patent US8148392B2, “2-indolyl imidazo [4,5-d] phenanthroline derivatives and their use in the treatment of cancer” (Lorus Therapeutics Inc., priority 2005, dated 2012):
pIC50: −log10 of the molar value. “Also recorded” adds a separate entry of the source. Where two headings read alike, the source gives them in different places.

Assays:
[1] = tested on: human colon carcinoma HT-29 cells; test: XTT cell proliferation assay, HT-29; assay type: cell-based; conditions: for IC50: as Example 13, Table 7
Procedure, shortened: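 HT-29 cells in McCoy's 5A with 10% FBS, 37° C., 5% CO2, exposed to varying compound concentrations for 6-7 days. Viable cells quantified by XTT reduction to formazan; growth inhibition expressed as IC50 (μM).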

[2] = tested on: HCT-116 colon cancer cells; test: XTT cell proliferation assay, HCT-116; assay type: cell-based, human; conditions: read-out: IC50 (cell growth inhibition)
Protocol: (§1) Cell growth inhibition IC50 (μM) by compounds of Formula I was tested on various cancer cell types by XTT cell proliferation assay. The growth inhibitory effects of the compounds of Formula I as shown below for the melanoma cell line SK-MEL-2 were reproducible by Lorus Therapeutics Inc.

H-460 lung cancer cells = test: XTT cell proliferation assay, H-460; assay type: cell-based, human
Protocol: as §1

[3] = tested on: PC-3 prostate cancer cells; test: XTT cell proliferation assay, PC-3; assay type: cell-based, human; conditions: read-out: IC50 (cell growth inhibition)
Protocol: as §1

[4] = tested on: MDA-MB-231 breast cancer cells; test: XTT cell proliferation assay, MDA-MB-231; assay type: cell-based, human; conditions: Homo sapiens, read-out: IC50 (cell growth inhibition)
Protocol: as §1

KLF4 [5] = test: KLF4 gene expression by RT-PCR, PC-3; assay type: cell-based, human; conditions: PC-3, relative to vehicle control as 1
Excerpt: (§2) Gene expression levels of KLF4, induced by compounds of Formula I, were also examined on various cancer cell types by RT-PCR. Fold changes in KLF4 in compound-treated cells were expressed relative to KLF4 expression in vehicle control-treated cells of respective cell type as “1”. […] Additionally, xenografts of MDA-MB-435 implanted into mammary fat pads of female SCID mice have shown immunohistochemical staining consistent with melanocytic origin (Ellison G, Klinowska T, Westwood R F, Docter E, French T, Fox J C. (2002) Mol Pathol. 55(5): 294-299). The breast cancer cell line MDA-MB-435 may be expected to function differently than the other breast cancer cell lines.

KLF4 [6] = test: KLF4 gene expression by RT-PCR, MDA-MB-435; assay type: cell-based, human; conditions: MDA-MB-435, relative to vehicle control as 1
Excerpt: as §2

KLF4 [7] = test: KLF4 gene expression by RT-PCR, CCRF-CEM; assay type: cell-based, human; conditions: relative to vehicle control as 1
Excerpt: as §2

MTF-1 = MTF-1 mRNA in HT-29 tumour xenografts, RT-PCR; assay type: in vivo, CD-1 athymic nude mice; conditions: HT-29 xenograft, versus vehicle
Protocol: Correlation between zinc-sensitive transcription factor MTF-1 and a cell cycle regulator Cyclin D1 expression in HT-29 colon cancer xenograft tissues is shown in FIG. 30. Based on the presence of putative MTF-1-binding DNA sequences in Cyclin D1 gene promoter region (shown in FIG. 30A), expression levels of MTF-1 and Cyclin D1 in xenograft tissues were examined by RT-PCR, using tissue RNA extract.
The tumor regression efficacy of compound 3 was assessed in compound 3-treated HT-29-transplanted athymic mice (FIG. 54A), and correlated with gene expressions of MTF-1, KLF4 and Cyclin D1 in HT-29 xenograft tissues (FIG. 54B). CD-1 athymic nude mice (4 per group) were injected subcutaneously with HT-29 cells (3×10^6 cells in 0.1 mL PBS). At 5 days after tumor cell inoculation, the mice were intra-peritoneally injected with 200 μL vehicle control or 100 mg/kg compound 3, for 5 days followed by 10 days interval, for 2 cycles (day 5 to 9 as a first cycle injection and day 20 to 24 as a second cycle injection). The tumor size was measured during the course of treatment using calipers (FIG. 54A). The mice were sacrificed at 34 days after tumor cell inoculation. The tumor tissues were excised, frozen immediately and stored at −80° C. until RNA extraction and gene expression was analyzed by RT-PCR (FIG. 54B). […]

[8] = PAR metal binding assay, zinc; assay type: physicochemical; conditions: pH 7.5, 200 μM PAR
Protocol: (§3) Results are shown in FIGS. 28A (ZnCl2), 28B (CuCl2) and 28C (FeCl2). In vitro 4-(2-pyridylazo) resorcinol (PAR) zinc binding assay was performed as follows. In triplicate wells of 96-well plate (Sarstedt, Newton, N.C.), 10 μL volume of indicated final concentrations of ZnCl2 in 0.2M Tris-HCl, pH 7.5 was incubated with 10 μL of 80% acetonitrile-20% DMSO vehicle control or indicated final concentrations of the compounds of Formula I, dissolved in 80% acetonitrile-20% DMSO, for 15 min at room temperature. Then, 80 μL of PAR at final concentration of 200 μM in 0.2M Tris-HCl, pH 7.5 was added and the color development of PAR-Zn^2+ complex was measured by a multi-well spectrophotometer (Bio-Tek Instruments Inc.) at 500 nm.
(§4) Metal chelation property of compound 64 and the relative affinity on different metal ions were evaluated and compared with the effect of compound 3 in vitro using 4-(2-pyridylazo) resorcinol (PAR) colorimetric zinc assay utilizing methodology as described above in the preceding Examples. Indicated final concentrations of ZnCl2 (FIG. 56A), CuCl2 (FIG. 56B) or FeCl2 (FIG. 56C) were incubated with 80% acetonitrile-20% DMSO vehicle control or 200 μM of the compounds of Formula I. The color development of PAR-metal ion complex was measured by a multi-well spectrophotometer at 500 nm.

[9] = PAR metal binding assay, copper; assay type: physicochemical; conditions: pH 7.5, 200 μM PAR
Protocol: as §3, §4

[10] = PAR metal binding assay, iron; assay type: physicochemical; conditions: 200 μM compound
Protocol: as §3, §4

[11] = Homo sapiens, HT-29, XTT, 6-7 days, Table 3, read-out: IC50
[12] = Homo sapiens, HT-29, XTT, read-out: IC50
[13] = Homo sapiens, HT-29 colon, Table 8, read-out: IC50 (cell growth inhibition)
[14] = Homo sapiens, NCI-H460, read-out: IC50 (cell growth inhibition)

IC50 ([1]; HT-29, XTT) [mg/L] | pIC50 ([1]; HT-29 colon, Table 8, read-out: IC50 (cell growth inhibition)) | pIC50 [2] | pIC50 (H-460 lung cancer cells; read-out: IC50 (cell growth inhibition)) | pIC50 [3] | Compound | pIC50 [1, 11] | IC50 [1, 12] [mg/L] | pIC50 [1, 13] | pIC50 ([2]; Homo sapiens) | pIC50 (H-460 lung cancer cells; [14]) | pIC50 ([3]; Homo sapiens) | pIC50 [4] | KLF4 (gene fold increase) (KLF4 [5]) [fold] | KLF4 (gene fold increase) (KLF4 [6]) [fold] | KLF4 (gene fold increase) (KLF4 [7]) [fold] | MTF-1 expression in tumour xenografts (MTF-1; listed as compound 3) | Zn binding to PAR (PAR-Zn2+ absorbance at 500 nm) [8] | Cu+2 binding to PAR (PAR-Cu2+ absorbance at 500 nm) [9] | color development of PAR-Fe2+ [10] | MTF-1 expression in tumour xenografts (MTF-1)
 |  |  |  |  | Cc1[nH]c2ccccc2c1-c1nc2c3cccnc3c3ncccc3c2[nH]1 [Compound 3] | 6.22 | 0.6 | 6.15 | 6.70 | 5.54 | 6.52 | 5.30 | 16.28 | 9.09 | 28.05 | Decreased MTF-1 expression; also recorded: decrease in MTF-1 and Cyclin D1 gene expressions | attenuated; also recorded: eliminated | attenuated; also recorded: eliminated | minimally affected | 
 |  |  |  |  | Cc1[nH]c2ccc(F)cc2c1-c1nc2c3cccnc3c3ncccc3c2[nH]1 [Compound 7] | 6.15 | 0.7 | 6.10 | 6.82 | 5.59 | 6.68 | 5.30 | 12.17 | 11.71 | 48.5 |  |  |  |  | Decreased MTF-1 expression
0.15 | 6.82 | 6.70 | 6.52 | 6.34 | CCc1cccc2c(-c3nc4c5cccnc5c5ncccc5c4[nH]3)c(C(C)(C)C)[nH]c12 [Compound 64] |  |  |  |  |  |  |  | 1.36 | 7.59 | 73.77 |  | eliminated | eliminated | minimally affected | 
